In patent US5316944A, “Enzymatic resolution of a racemic mixture of gamma-amino acids using penicillin acylase” (Merrell Dow Pharmaceuticals, priority 1992, dated 1994):

Columns and labels:
[1] = tested on: GABA-T; conditions: known to elevate brain levels of GABA; cited from earlier work
[2] = target: penicillin acylase (Escherichia coli, UniProt P06875); assay: penicillin acylase-catalyzed hydrolysis of N-phenylacetyl derivatives; format: biochemical, E.coli; conditions: for E: E values calculated from the yields and the ee's of the (R)-enantiomers; for Reaction rate: [S] = 50 mm, pH 7.8, 25° C.
Source text: Here we report a simple procedure for the preparation of the enantiomers of γ-ethynyl GABA, γ-allenyl GABA, and γ-vinyl GABA by penicillin acylase-catalyzed hydrolysis of the corresponding N-phenylacetyl derivatives. Penicillin acylase (PA) from E.coli is used in industry for the preparation of 6-aminopenicillanic acid and semisynthetic β-lactam antibiotics (V. K. Svedas et al., Enzyme Microb. Technol., 2, 138 (1980)). PA is highly specific to phenylacetyl group and catalyzes its cleavage not only from penicillins, but also from amides, peptides, and esters (M. Cole, Biochem J., 115, 733 (1969); Ibid, 741; and, A. Czentirmai, Acta Microbiol. Acad. Sci. Hung., 12, 395 (1965/1966). The structure of the leaving group of the substrates hardly affects the rate constants of the hydrolytic reactions (M. Cole, Nature, 203, 519 (1964), and A. L. Margolin et al., Biochim. Biophys. Acta, 616, 283 (1980)). The enantioselectivity of PA was exploited in the preparation of amino acids (D. Rossi et al., Experientia, 33, 1557 (1977) and Ibid, 41, 35 (1985)), aminoalkylphosphonic acids (V. A. Solodenko et al., Tetrahedron, 47, 3989 (1991)), esters and alcohols (C. Fuganti et al., Tetrahedron Letters, 44, 2575 (1988), and H. Waldman, 30, 3057 (1989)), although the hydrolysis of an ester bond normally results in products with modest optical purity.
In a typical experiment, 0.7 g of penicillin acylase immobilized on Eupergit C, was suspended in a solution of (N-phenylacetyl)-vinyl GABA (1.0 g; 4 mmol) in 35 ml 0.1 M phosphate buffer, pH 7.8. The mixture was stirred at room temperature (r.t.) for 5 hours. Then the solution was adjusted to pH 2 and the remaining substrate was extracted with CH2 Cl2 to give (S)-(N-phenylacetyl)-vinyl GABA (organic layer) and (R)-γ-vinyl GABA (aqueous). Since the chemical deacylation of (S)-(N-phenylacetyl)-vinyl GABA under acid conditions results in the formation of byproducts the same enzyme was used for the deacylation of (S)-(N-phenylacetyl)-vinyl GABA. To achieve an effective hydrolysis, a larger amount of Eupergit-PA (1.5 g), higher reaction temperature (45° C.), and longer reaction time (2 days) were used. When the reaction was complete (HPLC) the Eupergit-PA was filtered off and phenylacetic acid was extracted with CH2 Cl2 from acidic solution (pH 2). The aqueous solution of both (R)- and (S)-γ-vinyl GABA were subjected to ion-exchange chromatography (Dowex 1×2- 100 (OH-)) followed by lyophilization. The enamtiomers of γ-ethynyl GABA and γ-allenyl GABA were prepared by the same procedure (Table 1).
^b [S] = 50 mm; pH 7.8:25° C.
^f The E values were calculated from the yields and the ee's of the
(R)enantiomers (C. S. Chen, et al., J. Am. Chem. Soc., 104, 7294 (1982)).

[3] = which enantiomer is active; cited from earlier work
[4] = tested on: experimentally-induced seizures; conditions: compared with (S)-counterpart or racemic compound; cited from earlier work

penicillin acylase, sequence (P06875 290-846): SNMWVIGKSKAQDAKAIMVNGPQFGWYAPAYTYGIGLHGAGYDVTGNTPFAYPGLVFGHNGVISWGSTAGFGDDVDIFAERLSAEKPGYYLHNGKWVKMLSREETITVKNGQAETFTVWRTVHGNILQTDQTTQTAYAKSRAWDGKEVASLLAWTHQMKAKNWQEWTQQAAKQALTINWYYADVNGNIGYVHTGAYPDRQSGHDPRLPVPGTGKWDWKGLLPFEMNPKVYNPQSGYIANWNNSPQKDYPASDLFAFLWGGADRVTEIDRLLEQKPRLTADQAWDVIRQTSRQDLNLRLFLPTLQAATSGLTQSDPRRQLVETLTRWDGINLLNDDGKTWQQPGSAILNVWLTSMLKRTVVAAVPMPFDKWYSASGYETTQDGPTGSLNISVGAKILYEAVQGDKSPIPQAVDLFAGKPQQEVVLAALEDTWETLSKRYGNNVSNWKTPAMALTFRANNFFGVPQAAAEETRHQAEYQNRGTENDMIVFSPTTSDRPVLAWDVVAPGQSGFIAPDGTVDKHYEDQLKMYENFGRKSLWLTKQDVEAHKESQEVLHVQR
penicillin acylase, sequence (P06875 27-235): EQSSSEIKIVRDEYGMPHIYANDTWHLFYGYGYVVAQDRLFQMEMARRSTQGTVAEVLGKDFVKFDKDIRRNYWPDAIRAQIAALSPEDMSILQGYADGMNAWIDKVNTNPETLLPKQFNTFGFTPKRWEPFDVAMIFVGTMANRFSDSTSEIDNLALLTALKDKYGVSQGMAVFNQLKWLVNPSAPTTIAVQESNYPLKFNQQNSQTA

SMILES | inhibition of GABA-T [1] | E [2] | Reaction rate [2] [%] | further results
C#CC(N)CCC(=O)O (stereo not drawn) [γ-ethynyl GABA, 4-aminohex-5-ynoic acid] | irreversible inhibitors | – | – | –
C=CC(CCC(=O)O)NC(=O)Cc1ccccc1 (racemic) [Vinyl, (N-phenylacetyl)-vinyl GABA] | – | 17 | 39 | –
C=C=CC(N)CCC(=O)O (stereo not drawn) [γ-allenyl GABA, 4-amino-hepta-5,6-dienoic acid] | irreversible inhibitors | – | – | biological activity [3]: resides in the (S)-enantiomers
C=C=CC(CCC(=O)O)NC(=O)Cc1ccccc1 (racemic) [Allenyl] | – | 20 | 46 | –
C#C[C@H](N)CCC(=O)O [(R)-γ-ethynyl GABA] | – | – | – | activity as an anticonvulsant agent [4]: more active
C#CC(CCC(=O)O)NC(=O)Cc1ccccc1 (racemic) [Ethynyl] | – | > 100 | 100 | –
C=CC(N)CCC(=O)O (stereo not drawn) [γ-vinyl GABA, 4-aminohex-5-enoic acid] | irreversible inhibitors | – | – | biological activity [3]: resides in the (S)-enantiomers
